Results: patent publication US5147876A, “2,6-di,2,4,6-, 2,5,6-tri and 2,4,5,6-tetra-substituted pyrimidines, their pharmaceutically acceptable salts, pharmaceutical compositions containing same and their use in the treatment of neurological diseases” (Mitsui Petrochemical Industries, Ltd., priority 1988, dated 1992)
Where “and” joins values, the source holds several entries; their conditions need not be identical. Equal entries are not always repeated. Structures can show the parent of a compound that is named as a salt.

Tests used:
[1] = tested on: neuro-2a (mouse neuroblastoma cells); test: Action on neuro-2a: proportion of cells containing outgrown neurites; type: cell-based; settings: mean ± S.D.
Summary of the method: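 Read-out is the percentage of neurite-bearing cells (neurite ≥2× long cell diameter), counted microscopically over more than 200 cells per well. Before fixation and staining, neuro-2a cells (1,000/well, DMEM + 10% FCS) were cultured for one day at 37 °C; up to six compound concentrations, three runs each.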

mice = test: Acute toxicity on mice; type: in vivo; settings: 24 hours after administration
Description: (§1) The acute toxicity of the compounds of the invention was examined by the following method.
(§2) Male ddy-strain 5-week old mice, 4-6- per group, were used as experimental animals. Each of the compounds was intraperitoneally (i.p.), and the toxicity of the compound was assessed 24 hours after the administration.

[2] = tested on: NS-20Y (mouse neuroblastoma cells); test: Activity on NS-20Y cells: appearance of neurites; type: cell-based
Summary of the method: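 Mouse neuroblastoma NS-20Y cells were grown in polyornithine-coated dishes in DMEM with 10 % FCS, 100 units/ml penicillin G sodium and 100 micrograms/ml streptomycin sulfate, at 37° C under 5 % carbon dioxide, and exposed to compound. Cells were fixed with 4 % glutaraldehyde, stained with 0.05 % methylene blue, and the fraction bearing neurites at least twice the cell's long diameter was counted microscopically.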

Acute toxicity on mice = type: in vivo; settings: mouse, in vivo, ip, 24 hours after administration; read-out: Estimated LD50
Description: as §1, §2

Row | SMILES | Number of cells having neurites with a length at least two times the diameter of each cell/total number of cells ([1]; 0.03 mM) [%] | Number of cells having neurites with a length at least two times the diameter of each cell/total number of cells ([1]; 0.1 mM) | Estimated LD50 (mice) | Number of cells having neurites with a length at least two times the diameter of each cell/total number of cells ([1]; 0.3 mM) [%] | Number of cells in which neurites appeared/total number of cells ([2]; 48 hours, 0.1 mM) | Number of cells in which neurites appeared/total number of cells ([2]; 24 hours, 0.1 mM) | LD50 at 24 h (Acute toxicity on mice) [mg/kg] | also measured
1 | COCC(=O)N(C)c1ccnc(N2CCC(c3ccccc3)CC2)n1.Cc1ccc(S(=O)(=O)O)cc1 [Compound 154-2] | 3.9 ± 0.6 | 8.9 ± 2.4% | 500-1000 mg/kg, i.p. | – | – | – | – | –
2 | CN(C(=O)c1ccccc1)c1ccnc(N2CCC(c3ccccc3)CC2)n1 [Compound 169] | – | 34.1 ± 5.7% | > 1000 mg/kg, i.p. | 16.6 ± 5.2 | – | – | – | –
3 | CN(C(=O)c1ccccc1)c1ccnc(N2CCC(c3ccccc3)CC2)n1 [Compound 170, 4-(N-methylbenzamino)-2-(4-phenylpiperidino)pyrimidine hydrochloride] | – | – | > 1000 mg/kg, i.p. | – | – | – | – | Number of cells having neurites with a length at least two times the diameter of each cell/total number of cells ([1]; 0.1 mM, hydrochloride): 33.5 ± 2.4%; Number of cells having neurites with a length at least two times the diameter of each cell/total number of cells ([1]; 0.3 mM, hydrochloride): 31.0 ± 4.6%
4 | CN(C(=O)c1ccc(Cl)cc1Cl)c1ccnc(N2CCC(c3ccccc3)CC2)n1.Cc1ccc(S(=O)(=O)O)cc1 [Compound 171-11] | 5.9 ± 0.9 | 36.8 ± 7.1% and 22.1 ± 2.3% | > 1000 mg/kg, i.p. | – | 2/50 | – | – | Number of cells having neurites with a length at least two times the diameter of each cell/total number of cells ([1]; 1 mM): 31.7 ± 5.9%; Number of cells in which neurites appeared/total number of cells ([2]; 24 hours, 0.3 mM): 5/50
5 | O=C(c1ccccc1)N(Cc1ccccc1)c1nccc(N2CCC(c3ccccc3)CC2)n1 [Compound 660] | 13.5 ± 1.3 | 9.1 ± 3.7% | – | – | 4/50 | 5/50 | 500 to 1000 | –
6 | CN(C(=O)c1ccco1)c1nccc(N2CCC(c3ccccc3)CC2)n1 [Compound 684] | 5.8 ± 2.0 | 16.4 ± 2.8% | – | – | – | 2.50 | 500 to 1000 | Number of cells having neurites with a length at least two times the diameter of each cell/total number of cells ([1]; 0.01 mM): 3.8 ± 0.5%; Number of cells in which neurites appeared/total number of cells ([2]; 48 hours, 0.05 mM): 2/50
7 | COC(=O)c1cnc(NC(C)C)nc1C.O=C(O)/C=C\C(=O)O [Compound 804, 2-isopropylamino-4-methyl-5-methoxycarbonylpyrimidine maleate] | – | – | – | 9.4 ± 1.3 | – | – | 500 to 1000 | Number of cells having neurites with a length at least two times the diameter of each cell/total number of cells ([1]; 0.5 mM): 13.0 ± 2.1%; Number of cells having neurites with a length at least two times the diameter of each cell/total number of cells ([1]; 1 mM): 26.1 ± 6.8%; Number of cells having neurites with a length at least two times the diameter of each cell/total number of cells ([1]; 2 mM): 18.8 ± 3.1%; Number of cells in which neurites appeared/total number of cells ([2]; 24 hours, 0.25 mM): 8/55; Number of cells in which neurites appeared/total number of cells ([2]; 24 hours, 0.5 mM): 7/50; Number of cells in which neurites appeared/total number of cells ([2]; 48 hours, 0.25 mM): 8/50; Number of cells in which neurites appeared/total number of cells ([2]; 48 hours, 0.5 mM): 25/51
8 | CNc1cc(C)nc(N2CCC(c3ccccc3)CC2)n1 [Compound 1090] | 5.7 ± 0.6 | 12.2 ± 2.5% | – | 10.3 ± 0.9 | 3/50 | 21/50 | 500 to 1000 | Number of cells having neurites with a length at least two times the diameter of each cell/total number of cells ([1]; 0.01 mM): 3.7 ± 1.0%; Number of cells in which neurites appeared/total number of cells ([2]; 24 hours, 0.02 mM): 4/50
9 | CN1C(=O)Cc2cnc(N3CCN(C(c4ccccc4)c4ccccn4)CC3)nc21 (stereo not drawn) [Compound 3192] | – | 9.7 ± 1.1% | – | 3.7 ± 3.2 | – | – | 500 to 1000 | Number of cells in which neurites appeared/total number of cells ([2]; 24 hours, 0.02 mM): 6/50; Number of cells in which neurites appeared/total number of cells ([2]; 48 hours, 0.02 mM): 4/50
